The results in this text go back to PubChem BioAssay AID2060602 (Molecular Pharmacology Branch, DTP, NCI, 2025).

The test system of this assay is 648629-189-R-J1-PDC complex spheroids viability. Put plainly: Anticancer human tumor 648629-189-R-J1-PDC patient-derived bladder carcinoma cell line growth inhibition [CLK]. Particulars: for viability, T/C: stronger effect = lower value. An excerpt: A high-throughput screen of multi-cell type tumor spheroids was designed to identify active combinations of […] and targeted small molecules. Complex spheroids include a stromal component modeled by human endothelial cells (HUVEC) and fibroblasts modeled by human mesenchymal stem cells (MSCs). The concentration ranges selected for each drug and investigational agent were based upon clinically achievable concentrations if the clinical Cmax of the agent was known.
Compounds. The drugs and investigational agents: cirtuvivint (SM08502; NSC835563), CC-671 (NSC850746), vemurafenib (NSC761431), tapotoclax (NSC804041), sotorasib (NSC818433), adagrasib (NSC831453), MRTX-1133 (NSC836407), BAY2416964 (NSC825713), copanlisib (NSC816437), inavolisib (NSC800729), abemaciclib (NSC768073), osimertinib (NSC779217), entinostat (NSC756642), eltanexor (KPT-8602, NSC794443), venetoclax (NSC766270), ceralasertib (NSC777638), bortezomib (NSC756655), olaparib (NSC753686), talazoparib (NSC767125), alisertib (NSC759677), peposertib (NSC802822), gemcitabine (NSC613327), 5-fluorouracil (NSC19893), SN-38 (NSC673596), oxaliplatin (NSC266046), paclitaxel (NSC125973), and doxorubicin (NSC123127), were obtained from the National Cancer Institute (NCI) Developmental Therapeutics Program Chemical Repository. The FDA-approved anticancer drug set is available from the Developmental Therapeutics Program at https://dtp.cancer.gov/organization/dscb/obtaining/available plates.htm. […] The stock solutions were prepared in dimethyl sulfoxide (DMSO, Sigma-Aldrich, St. Louis, MO, cat. D2650), except for the platinum complexes which were prepared in saline (Quality Biological, Gaithersburg, MD, cat. 114-055-101), at 800-fold the tested concentration and stored at -70 degrees C prior to their use. All drugs and investigational agents were tested over a range starting from a high concentration at or near the clinical Cmax and decreasing in half-log increments. If the clinical Cmax for an agent had not been determined, the highest concentration tested was 10 microM.
Cell Culture. All cells were maintained in an incubator at 37 degrees C and 5% CO2 with 95% humidity. The PDC lines were cultured according to standard operating procedures established by the NCI PDMR. Briefly, all PDCs were thawed and cultured in Matrigel-coated flasks prepared with a working solution of 1X Ham's F-12 nutrient mix, without supplementation (Invitrogen, Waltham, MA, cat. 11765054), 100 U/mL penicillin-streptomycin (Invitrogen, cat. 15140122), and 2.5% Matrigel (Corning Inc., Corning, NY, cat. 354248) for the first three passages. The 947758-054-R-J2-PDC line was cultured in 6B/Colon 1A media, which includes advanced DMEM/F-12 (Thermo Fisher Scientific, cat. 12634028), 10 mM HEPES (Thermo Fisher Scientific, cat. 15630080), 1X GlutaMAX supplement (Thermo Fisher Scientific, cat. 35050061), 0.1 mg/mL primocin (InvivoGen, cat. ant-pm-2), 10% defined fetal bovine serum, heat inactivated (HyClone Laboratories Inc., cat. SH30070.03HI), 1.25 mM N-Acetyl-L-cysteine (Sigma-Aldrich, cat. A9165), 10 mM nicotinamide (Sigma-Aldrich, cat. N0636), 1X B-27 supplement (Thermo Fisher Scientific, cat. 17504044), 1X N-2 supplement (Thermo Fisher Scientific, cat. 17502048), and 10 microM Y-27632 dihydrochloride (Tocris Bioscience, cat. 1254). The 876862-298-R-J1-PDC was cultured in 6E media, which includes all 6B/Colon 1A media components plus 50% L-WRN conditioned media (ATCC, cat. CRL-3276), 50 ng/mL recombinant human EGF recombinant protein (hEGF; Thermo Fisher Scientific, cat. PHG0311), 10 ng/mL recombinant human fibroblast growth factor 10 (hGFG-10; PeproTech, cat. 100-26), 1 ng/mL recombinant human fibroblast growth factor 2 (hFGF-2; PeproTech, cat. 100-18B), and 1 µM prostaglandin E2 (PGE2; Tocris, cat. 2296). The 227483-062-R1-J1-PDC line was cultured in Panc media, containing all 6E components except hFGF-2, with the addition of 500 nM SB-431542 (Selleckchem, cat. S1067) and 10 nM gastrin (Tocris, cat. 3006). […]

Several values for one entry are separate records, joined by “and”; a condition that tells them apart may be missing. Identical values can stand only once.
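For viability, T/C in this document: drug exposure lasted seven days before viability readout; 100% = DMSO vehicle control wells.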

A word on the IC50: it is the concentration that inhibits the measured activity by half. As usually defined, the viability, T/C is the ratio of treated to control. Take `COC1C=CCC(C)C(C)S(=O)(=O)NC(=O)c2ccc3c(c2)N(CC2CCC21)CC1(CCCc2cc(Cl)ccc21)CO3` (stereo unspecified) + CNC(=O)c1ccc(Nc2nc(OC3CCCC3)c3c(-c4ccc5nc(C)oc5c4)c[nH]c3n2)c(OC)c1: the IC50 runs as follows: (curve of first compound, second compound 0.0316 µM) 1790 nM; (curve of first compound, second compound 0.1 µM) 1840 nM; (curve of first compound, second compound 0.316 µM) below 31.6 nM; (curve of first compound, second compound 1 µM) below 31.6 nM; (curve of first compound, second compound 3.16 µM) below 31.6 nM; (curve of first compound, second compound 10 µM) below 31.6 nM. Further, the viability, T/C reads like this: (second compound 0.0316 µM, first compound 0.0316 µM) 107%; (second compound 0.0316 µM, first compound 0.1 µM) 89%; (second compound 0.0316 µM, first compound 0.316 µM) 91.6%; (second compound 0.0316 µM, first compound 1 µM) 80.7%; (second compound 0.0316 µM, first compound 3.16 µM) 20.1%; (second compound 0.0316 µM, first compound 10 µM) 4.12%. Besides, the viability, T/C (second compound 0.1 µM, first compound 0.0316 µM) was 82.8%; the viability, T/C (second compound 0.1 µM, first compound 0.1 µM) was 97.5%; the viability, T/C (second compound 0.1 µM, first compound 0.316 µM) was 83.8%; the viability, T/C (second compound 0.1 µM, first compound 1 µM) was 88.5%; the viability, T/C (second compound 0.1 µM, first compound 3.16 µM) is 16.3%; the viability, T/C (second compound 0.1 µM, first compound 10 µM) was 4.69%. Further, the viability, T/C was 27.2% (second compound 0.316 µM, first compound 0.0316 µM); 23.6% (second compound 0.316 µM, first compound 0.1 µM); 24.2% (second compound 0.316 µM, first compound 0.316 µM); 14% (second compound 0.316 µM, first compound 1 µM); 8.44% (second compound 0.316 µM, first compound 3.16 µM); 2.86% (second compound 0.316 µM, first compound 10 µM). The viability, T/C is 19.5% (second compound 1 µM, first compound 0.0316 µM); 20.7% (second compound 1 µM, first compound 0.1 µM); 16.3% (second compound 1 µM, first compound 0.316 µM); 10.1% (second compound 1 µM, first compound 1 µM); 6.11% (second compound 1 µM, first compound 3.16 µM); 3.77% (second compound 1 µM, first compound 10 µM). Further, the viability, T/C (second compound 3.16 µM, first compound 0.0316 µM) is 21.5%; the viability, T/C (second compound 3.16 µM, first compound 0.1 µM) was 18.3%; the viability, T/C (second compound 3.16 µM, first compound 0.316 µM) was 16.7%; the viability, T/C (second compound 3.16 µM, first compound 1 µM) was 10.5%; the viability, T/C (second compound 3.16 µM, first compound 3.16 µM) is 6.62%; the viability, T/C (second compound 3.16 µM, first compound 10 µM) is 3.31%. In addition, the viability, T/C (second compound 10 µM, first compound 0.0316 µM) was 17.1%; the viability, T/C (second compound 10 µM, first compound 0.1 µM) was 16.5%; the viability, T/C (second compound 10 µM, first compound 0.316 µM) is 15.2%; the viability, T/C (second compound 10 µM, first compound 1 µM) is 11.4%; the viability, T/C (second compound 10 µM, first compound 3.16 µM) was 6.23%; the viability, T/C (second compound 10 µM, first compound 10 µM) was 3.81%.

Regarding `CNC(=O)c1ccc(Nc2nc(OC3CCCC3)c3c(-c4ccc5nc(C)oc5c4)c[nH]c3n2)c(OC)c1`, the viability, T/C is 108% [middle of 12 runs] (compound 0.0316 µM); 88.3% [middle of 12 runs] (compound 0.1 µM); 28% [middle of 12 runs] (compound 0.316 µM); 19.8% [middle of 12 runs] (compound 1 µM); 19% [middle of 12 runs] (compound 3.16 µM); 20% [middle of 12 runs] (compound 10 µM). Besides, the IC50 (compound alone, run of 08/01/2023) was 209 nM [middle of 10 runs].

As to `Cn1ncnc1[C@H]1c2n[nH]c(=O)c3cc(F)cc(c23)N[C@@H]1c1ccc(F)cc1`, the viability, T/C reads like this: (compound 0.000316 µM) 106% and 98.8%; (compound 0.001 µM) 84.9% and 101%; (compound 0.00316 µM) 99.2% and 97.4%; (compound 0.01 µM) 83.2% and 92.6%; (compound 0.0316 µM) 73.8% and 77.2%; (compound 0.1 µM) 67.4% and 71.5%. Further, the IC50 (curve of compound) was above 100 nM.
